As a reminder, the IC50 is the point on the concentration scale where inhibition reaches its midpoint.

The source of these data is patent US20220280530A1, “PREVENTION OR TREATMENT OF DISEASES AND DISORDERS ASSOCIATED WITH TISSUE DAMAGE” (priority 2019, published 2022).

For one assay, the target named is MST1 (Homo sapiens, UniProt Q13043). The experiment in a line: MST1 protein kinase inhibition (Table 5). In kind it is biochemical.
A further assay has as its target T1, MST2 (Homo sapiens, UniProt Q13188).
T1 sequence (Q13188 1-491): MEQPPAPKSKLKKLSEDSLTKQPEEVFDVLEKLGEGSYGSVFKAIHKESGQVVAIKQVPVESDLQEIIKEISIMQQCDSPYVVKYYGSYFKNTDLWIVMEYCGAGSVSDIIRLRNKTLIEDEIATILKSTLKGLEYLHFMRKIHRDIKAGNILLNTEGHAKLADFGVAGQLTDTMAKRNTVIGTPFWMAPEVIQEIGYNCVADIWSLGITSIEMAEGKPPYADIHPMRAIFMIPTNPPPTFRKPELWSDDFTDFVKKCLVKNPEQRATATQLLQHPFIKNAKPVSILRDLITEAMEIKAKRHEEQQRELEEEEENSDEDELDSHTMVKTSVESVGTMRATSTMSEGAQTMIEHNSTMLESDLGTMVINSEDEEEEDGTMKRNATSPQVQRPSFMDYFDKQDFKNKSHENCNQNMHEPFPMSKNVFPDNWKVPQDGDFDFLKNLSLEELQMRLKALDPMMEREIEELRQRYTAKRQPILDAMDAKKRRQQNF
Put plainly: MST2 protein kinase inhibition (Table 5). In kind it is biochemical.

For assay [1], the system named is inflammatory cytokines in HUVEC, such as MCP-1 and IL-6. Put plainly: mRNA levels of inflammatory cytokines in HUVEC after TNFα stimulation (qPCR). The following applies: in response to TNFα stimulation, FIGS. 17A-17D, 18A-18D. In kind it is cell-based, human.
In assay [2] the test system is THP-1 cells / TNFα-activated ECs. Put plainly: Adhesion of THP-1 cells to TNFα-activated endothelial cells. In kind it is cell-based, human. The following applies: FIGS. 19A-19B, 20A-20B. As to the method:
To substantiate the functional significance of inhibitors of MST1/2 protein kinases in activating endothelial cells, the monocyte adhesion to the activated endothelial cells was further examined.
Cell adhesion was assessed as the follows: THP1 cells were labeled with calcein-AM (Invitrogen) according to the instructions of the manufacturer. After the HUVECs were stimulated and washed, 2.5×10^5 calcein-labeled THP1 cells were added to each well and allowed to interact with MST1/2 inhibitors for 60 minutes at […]. Unbound cells were removed by gently washing with complete medium, and the number of attached cells was counted on an inverted fluorescent microscope.

A further assay concerns mice treated with DOX. Put plainly: In vivo cardio protection: heart function and atrophy induced by DOX in mice. The following applies: by week four, inhibitors daily i.p., FIG. 11. The procedure: In vivo cardio protection in mice by the inhibitors of MST1/2 protein kinases was verified by measuring heart function and atrophy induced by DOX (FIG. 8). Two inhibitors X1 (drug 1) and Y1 (drug 2) were administered to the mice daily by i.p. during the entire study period. After administration of the inhibitors for six days, DOX was administered every two days by i.p. for four times. Blood samples were collected periodically from the mice by […]. EdU was administered to the mice during the final four days of the study (FIG. 8).
Further, the mice were disected at the death or at the end of the study and the weight of the hearts was measured.
The heart function measured as EF % (ejection fraction) was impaired by DOX over the four-week study period.

The next assay has as its system VCAM-1. Put plainly: VCAM-1 expression in stimulated HUVECs (western blot). In kind it is cell-based, human. The note with it: for IC50: Homo sapiens, HUVEC, read-out: IC50 of inhibition of VCAM-1 expression. In general terms: Immunoblotting shows a protein as a band on a membrane.
Assay [3] deals with inflammatory cytokines in the mouse lung. Put plainly: Murine septic model (LPS): inflammatory cytokine mRNA in mouse lung (real-time PCR). In kind it is in vivo, mice. The note with it: LPS 2.5 mg/kg i.p.; pretreated twice at 24 hrs and 3 hrs prior; 6 hrs after LPS; FIGS. 21A-21D. The procedure:
In this regard, the mice were pretreated with X1 twice at 24 hrs and 3 hrs, respectively, prior to the injection of lipopolysaccharides (LPS). 6 hrs after injection of LPS to induce the sepsis model, the expression of inflammatory cytokines in the mouse lung was determined by real-time PCR.

Assay [4] concerns C57B1/6 mice, MCAO-induced cerebral ischemia. Put plainly: Mouse cerebral ischemia model by transient middle cerebral artery occlusion (MCAO). In kind it is in vivo. As to the method:
To verify the protective effect of the inhibitors of MST1/2 protein kinases on the brain injury after ischemic stroke, X1 was administered to mouse cerebral ischemia model induced by transient middle cerebral artery occlusion (MCAO). Briefly, 8-12 week-old C57B1/6 mice (both male and female mice) were intraperitoneal injection with vehicle (DMSO) or 2 mg/kg X1 twice at 24 hours and 3 hours prior to MCAO procedure respectively. Mice were then anesthetized with 2.0% isoflurane, with their body temperature maintained at 37° C. with a heating pad. Following a midline cervical skin incision, the proximal right common carotid artery and the right external carotid artery were ligated. […]
Real-time cerebral blood flow was monitored using a laser speckle contrast imager (PeriCam PSI HR System, Perimed, Sweden) to confirm occlusion of the MCAO and reperfusion after removal of the filament. […] Brain sections were stained with 2% 2,3,5-Triphenyltetrazolium chloride (T8877; Sigma-Aldrich, St. Louis, Mo.) and scanned (HP Scanjet G4010) to allow quantification of infarcted and uninjured brain tissue. […]
In addition, neurological function of the MCAO-induced cerebral ischemia model mice was evaluated after treatment with the MST1/2 protein kinases inhibitor X1. […]

The next assay deals with ICAM-1. The experiment in a line: ICAM-1 expression in stimulated HUVECs (western blot). In kind it is cell-based, human. The following applies: 1 μM, 1 hour pretreatment, TNF-α (20 ng/mL) and IL-1β (10 ng/mL) 12 hours; FIG. 15A.

Read-outs that look alike come from different tables or passages of the source.

Chain of MST1 (Q13043 whole entry, looked up): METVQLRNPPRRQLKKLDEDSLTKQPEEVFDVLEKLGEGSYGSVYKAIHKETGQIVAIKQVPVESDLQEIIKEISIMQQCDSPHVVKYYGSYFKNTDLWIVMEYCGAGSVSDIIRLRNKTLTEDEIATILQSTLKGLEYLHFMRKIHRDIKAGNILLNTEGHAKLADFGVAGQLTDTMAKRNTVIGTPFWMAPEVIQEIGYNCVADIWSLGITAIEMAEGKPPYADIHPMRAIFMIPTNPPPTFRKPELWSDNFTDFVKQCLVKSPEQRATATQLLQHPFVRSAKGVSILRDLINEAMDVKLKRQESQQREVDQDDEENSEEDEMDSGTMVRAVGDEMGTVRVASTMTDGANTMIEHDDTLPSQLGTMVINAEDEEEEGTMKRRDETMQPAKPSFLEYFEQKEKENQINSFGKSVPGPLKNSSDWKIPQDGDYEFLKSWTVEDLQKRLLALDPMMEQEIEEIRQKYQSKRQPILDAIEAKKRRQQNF

For the molecule `NS(=O)(=O)c1ccc(Nc2ncc3c(n2)N(C2CCCC2)c2ccccc2C(=O)N3)cc1` [IB-1], the concentration for half-maximal inhibition (IC50) against MST1 and on MST2 was greater than 30 µM each time.
Molecule `CCN1c2ccccc2C(=O)N(C)c2cnc(Nc3cccc(S(N)(=O)=O)c3)nc21` [ID-3] showed an IC50 at MST2 greater than 30 µM.
In turn, `[2H]c1ccc2c(c1)N(C)c1nc(Nc3ccc(S(N)(=O)=O)cc3)ncc1N(C)C2=O` [IH-7] registered a concentration for half-maximal inhibition (IC50) on MST1 of 3.12 µM.
For the molecule `CN1c2ccccc2C(=O)Nc2cnc(Nc3ccc(NS(C)(=O)=O)cc3)nc21` [IA-6], the half-maximal inhibitory concentration (IC50) against MST1 and against MST2 was greater than 30 µM in each case.
On MST2, `CC(C)N1c2ccccc2C(=O)N(C)c2cnc(Nc3cccc(S(N)(=O)=O)c3)nc21` [IE-2] showed an IC50 greater than 30 µM.
On to `CN1C(=O)c2ccccc2Nc2nc(Nc3cccc(S(N)(=O)=O)c3)ncc21` [IG-3], for which the IC50 on MST1 and against MST2 was greater than 30 µM each time.
In the case of `Cc1ccc2c(c1)C(=O)N(C)c1cnc(Nc3ccc(S(C)(=O)=O)cc3)nc1N2C` [IH-3], the IC50 against MST1 and on MST2 was greater than 30 µM each time.
On MST2, `CN1CCN(S(=O)(=O)c2ccc(Nc3ncc4c(n3)N(C3CCCC3)c3ccccc3C(=O)N4C)cc2)CC1` [IF-4] had an IC50 greater than 30 µM.
For `CCN1c2ccccc2C(=O)N(C)c2cnc(Nc3ccc(S(N)(=O)=O)cc3)nc21` [ID-1], the 50% inhibitory concentration (IC50) is 0.04 µM on MST1 (read-out: MST1 IC50) and 0.11 µM against MST2.
For the molecule `CN1C(=O)c2cc(Cl)ccc2N(C)c2nc(Nc3ccc(S(N)(=O)=O)cc3)ncc21` [IH-10], on MST2, the 50% inhibitory concentration (IC50) was greater than 30 µM.
As for `COc1cc(N2CCC(O)CC2)ccc1Nc1ncc2c(n1)N(C)c1ccsc1C(=O)N2C` [II-22], the IC50 on MST1 and on MST2 was greater than 30 µM in each case.
For `COc1cc(N2CCN(C)CC2)ccc1Nc1ncc2c(n1)N(C)c1ccsc1C(=O)N2C` [II-16], the IC50 against MST1 and against MST2 was greater than 30 µM throughout.
In turn, `CN1C(=O)c2sccc2N(C)c2nc(Nc3cc[nH]n3)ncc21` [II-27] returned a 50% inhibitory concentration (IC50) against MST2 greater than 30 µM.
For the molecule `CN1C(=O)c2ccccc2N(C)c2nc(Nc3cccc(S(N)(=O)=O)c3)ncc21` [IC-4], the IC50 on MST1 and against MST2 was greater than 30 µM each time.
For `CCN1CCN(Cc2ccc(Nc3ncc4c(n3)N(C)c3ccccc3C(=O)N4C)cc2C(F)(F)F)CC1` [IC-5], the IC50 turned out to be 1.91 µM at MST1 (read-out: MST1 IC50) and 1.8 µM against MST2.
`CN1C(=O)c2ccc(Cl)cc2N(C)c2nc(Nc3ccc(S(C)(=O)=O)cc3)ncc21` [IH-14] yielded an IC50 on MST1 greater than 30 µM.
As to `CN1C(=O)c2cccc3c2N(CC3)c2nc(Nc3cccc(S(N)(=O)=O)c3)ncc21` [IV-2], the IC50 on MST1 and against MST2 was greater than 30 µM each time.
Take `Cc1ccc2c(c1)C(=O)N(C)c1cnc(Nc3ccc(S(N)(=O)=O)cc3)nc1N2C` [IH-6]: the 50% inhibitory concentration (IC50) on MST1 and against MST2 was greater than 30 µM in each case.
For the molecule `CN1C(=O)c2sccc2N(C)c2nc(Nc3ccc(N)cc3)ncc21` [II-14], the IC50 on MST1 (read-out: MST1 IC50) is 2.16 µM; at MST2, 2.75 µM.
As for `CCN1CCN(Cc2ccc(Nc3ncc4c(n3)N(C3CCCC3)c3ccccc3C(=O)N4C)cc2C(F)(F)F)CC1` [IF-6], the half-inhibitory concentration (IC50) on MST2 is greater than 30 µM.
`CC(C)N1c2ccccc2C(=O)N(C)c2cnc(Nc3ccc(S(N)(=O)=O)cc3)nc21` [IE-1]: the figures for the IC50 on MST1 (read-out: MST1 IC50) and on MST2 were 0.83 µM and 2.45 µM, respectively.
With `CN1C(=O)c2ccccc2N(C)c2nc(Nc3ccc(S(N)(=O)=O)cc3)ncc21` [Y1], in assay [1], the “mRNA levels of inflammatory cytokines in HUVEC, such as MCP-1 and IL-6” value is reported as “markedly inhibited”. Also, the “adhesion of THP-1 cells to TNFα-activated ECs” value in [2] was “markedly inhibited”. Moreover, the “heart function measured as EF % (ejection fraction)” value in the assay with mice treated with DOX is on record as “reduced the EF % decrease”. Further, the IC50 in the assay with VCAM-1 (HUVECs, FIGS. 15B, 16A-16B) stood at 0.49 µM.
For `CN1C(=O)c2ccccc2N(C2CCCC2)c2nc(Nc3cccc(S(N)(=O)=O)c3)ncc21` [IF-5], the IC50 against MST1 and on MST2 was greater than 30 µM throughout.
Regarding `CN1C(=O)c2sccc2N(C)c2nc(Nc3ccc([N+](=O)[O-])cc3)ncc21` [II-11], the IC50 at MST1 and against MST2 was greater than 30 µM in each case.
In the case of `CN1C(=O)c2sccc2N(C)c2nc(Nc3ccc(S(N)(=O)=O)cc3)ncc21` [X1], in [3], the “mRNA level of ICAM-1 in mouse lung” value is recorded as “markedly suppressed”, the “mRNA level of IL-6 in mouse lung” value was “markedly suppressed”, the “mRNA level of MCP-1 in mouse lung” value is given as “markedly suppressed” and the “mRNA level of VCAM-1 in mouse lung” value is reported as “markedly suppressed”. Further, in assay [1], the “mRNA levels of inflammatory cytokines in HUVEC, such as MCP-1 and IL-6” value is on record as “markedly inhibited”. Also, the “adhesion of THP-1 cells to TNFα-activated ECs” value in assay [2] is “markedly inhibited”. Further, the “heart function measured as EF % (ejection fraction)” value in the assay on mice treated with DOX was “reduced the EF % decrease”. In the assay on VCAM-1 (1 μM, 1 hour pretreatment, TNF-α (20 ng/mL) and IL-1β (10 ng/mL) 12 hours, FIG. 15A), the VCAM-1 expression result was “substantially inhibited”. Besides, the IC50 in the assay on VCAM-1 is 1.29 µM. The infarct size entry in assay [4] (2 mg/kg i.p. twice, 24 hours and 3 hours prior to MCAO, 60 minutes ischemia, 23 hours reperfusion, FIGS. 13, 14A) is given as “significantly attenuated”. Also, the “neurological function (0-4-point neurological score)” value in [4] (MCAO mice, in comparison with vehicle treatment, FIG. 14B) was “reducing the damages to neurological functions”. The “expression of ICAM-1” value with ICAM-1 is given as “barely affected”.
As for `CN1C(=O)c2sccc2N(C)c2nc(Nc3cccc(S(N)(=O)=O)c3)ncc21` [II-2], the IC50 at MST2 was greater than 30 µM.
